According to US20240016938A1, “METHODS FOR INCREASING THE BIOAVAILABILITY OF NUCLEOSIDE MEDICINAL AGENTS” (ZOGENIX MDS, INC., priority 2022, published 2024):
Where two headings read alike, the source gives them in different places.

Assay: Phase 1 open-label, fixed-sequence, single-ascending dose and food-effect PK study of MT1621 in adult healthy subjects
Type: in vivo, human
Method: A phase 1 study was conducted as an open-label, fixed-sequence, single-ascending dose study in adult healthy subjects designed to evaluate the safety, tolerability, PK, and food-effect of MT1621 (dC and dT). To evaluate the PK of MT1621, the combination was administered at three different doses. Treatment A was a 43.3 mg/kg dose of MT1621 (i.e., a 43.3 mg/kg dose of dC and a 43.3 mg/kg dose of dT (each approximately equivalent to 1 dose of a 130 mg/kg daily dose, divided 3 times daily [TID])) in healthy male and female subjects under fasting conditions; Treatment B was an 86.7 mg/kg dose of MT1621 (i.e., a 86.7 mg/kg dose of dC and a 86.7 mg/kg dose of dT (each approximately equivalent to 1 dose of a 260 mg/kg daily dose, divided TID)) in healthy male and female subjects under fasting conditions; and Treatment C was a 133.3 mg/kg dose of MT1621 (i.e., a 133.3 mg/kg dose of dC and a 133.3 mg/kg dose of dT (each approximately equivalent to a 400 mg/kg daily dose, divided TID)) in healthy male and female subjects under fasting conditions. Additionally, Treatment D was a 133.3 mg/kg dose of MT1621 (i.e., a 133.3 mg/kg dose of dC and a 133.3 mg/kg dose of dT (each approximately equivalent to a 400 mg/kg daily dose, divided TID) in healthy male and female subjects under fed conditions, to determine the effect of a high-fat meal on the single-dose PK of MT1621.
Methodology of open-label, Phase 1, fixed-sequence, single-dose, dose escalation, and food-effect study. Fourteen (14) healthy, adult, male and female subjects were enrolled with an approximately equal distribution (at least 40% of each sex) between male and female subjects.
On Day 1 of each period, subjects received 1 of 3 dose levels of MT1621 under fasting conditions as escalating single doses over 3 periods in Part A (Treatments A, B, and C in Periods 1, 2, and 3, respectively) and with the highest dose under fed conditions in Part B (Treatment D in Period 4). Four (4) of 14 subjects that completed Part A (Periods 1 to 3) could not complete Part B (Treatment D in Period 4) during the original confinement. These subjects were then to return to the clinical unit and continue the study to complete Part B (Treatment D in Period 4); 2 of the 4 subjects completed Part B.
Each treatment was assessed by blood and urine PK sampling pre-dose and up to 48 hours post-dose for the determination of dC and dT in plasma and urine PK, and possible future analysis of blood for PD biomarkers.
A washout period of at least 2 days without drug between each treatment administration was maintained. Fourteen subjects were enrolled in the study, and 12 subjects completed the study. Data from 14 subjects were included in the PK analysis of Periods 1, 2, and 3 and data from 12 subjects were included in the PK analysis of Period 4.
Study drug administered in Example 1 was 0.5 g dC and 0.5 g dT powders for solution and were reconstituted in juice or water.
After reconstitution in a fixed amount of water or juice, the solution was administered via measured volume to provide the amounts specified in Studies A, B, C, and D.
MT1621 was administered orally at Hour 0 on Day 1, following an overnight fast for Treatments A, B, and C and within 5 minutes of consumption of a standardized high-fat breakfast (which included eggs, bacon, and toast with butter) for Treatment D.
Blood samples for the determination of plasma dC and dT concentrations were collected on Day 1 of each period at pre-dose (0 hour), and at 0.25, 0.5, 1, 1.5, 2, 3, 4, 5, 6, 8, 12, 24, and 48 after study drug administration. In Period 4, blood was collected for the 48-hour PK sample; for Periods 1 through 3, the 48-hour PK sample was collected at the same time as the pre-dose PK sample from the next period so only 1 sample was collected for both PK time points. It should be pointed out that Periods 1-3 used sampling up to 24 hours for PK while Period 4 used the complete 48-hour profile. […]

[1] = 100*(test/reference): 133.3 mg/kg MT1621 fed vs fasted, baseline-adjusted plasma
[2] = Treatment A: single 43.3 mg/kg MT1621, fasted, baseline-adjusted plasma, arithmetic mean ± SD
[3] = Treatment B: single 86.7 mg/kg MT1621, fasted, baseline-adjusted plasma, arithmetic mean ± SD
[4] = Treatment D: single 133.3 mg/kg MT1621, fed (high-fat breakfast), baseline-adjusted plasma, arithmetic mean ± SD

increase in baseline adjusted AUC, fed compared to fasted (133.3 mg/kg MT1621, plasma): 137% | increase in baseline adjusted Cmax, fed compared to fasted (133.3 mg/kg MT1621, plasma): 79% | AUC0-t GMR (%) [1]: 237.18% | Cmax GMR (%) [1]: 178.88% | AUC%extrap [2]: 11.36 ± 8.5281% | Kel [2]: 0.1280 ± 0.1276 h⁻¹ | AUC%extrap [3]: 12.46 ± 13.194% | Kel [3]: 0.2030 ± 0.1938 h⁻¹ | AUC%extrap (Treatment C: single 133.3 mg/kg MT1621, fasted, baseline-adjusted plasma, arithmetic mean ± SD): 1.152 ± 1.0948% | AUC%extrap [4]: 3.567 ± 5.0087% | Kel [4]: 0.7971 ± 0.3869 h⁻¹ | dose proportionality of Cmax (across the 3 fasted dose levels (Treatments A, B, C), plasma): less than dose-proportional | Vd/F (both sexes, human, oral, Treatment D: single 133.3 mg/kg MT1621, fed (high-fat breakfast), baseline-adjusted plasma, arithmetic mean ± SD, read-out: Vz/F): 1660 ± 1470 L/kg | half-life (both sexes, human, plasma, oral, 43.3 mg/kg, 43.3 mg/kg dose level, read-out: geometric mean elimination half-life (converted)): 2.16 h | half-life (both sexes, human, plasma, oral, 43.3 mg/kg, Treatment A: single 43.3 mg/kg MT1621, fasted, baseline-adjusted plasma, arithmetic mean ± SD, read-out: t½ (converted)): 10.3 ± 8.2 h | AUC(0-inf) (both sexes, human, plasma, oral, 43.3 mg/kg, Treatment A: single 43.3 mg/kg MT1621, fasted, baseline-adjusted plasma, geometric mean (geometric CV %)): 48.4 ng·h/mL | AUC(0-t) (both sexes, human, plasma, oral, 43.3 mg/kg, Treatment A: single 43.3 mg/kg MT1621, fasted, baseline-adjusted plasma, geometric mean (geometric CV %), read-out: AUC0-4): 7.84 ng·h/mL | AUC(0-t) (both sexes, human, plasma, oral, 43.3 mg/kg, Treatment A: single 43.3 mg/kg MT1621, fasted, baseline-adjusted plasma, geometric mean (geometric CV %), read-out: AUC0-6): 9.58 ng·h/mL | AUC(0-t) (both sexes, human, plasma, oral, 43.3 mg/kg, Treatment A: single 43.3 mg/kg MT1621, fasted, baseline-adjusted plasma, geometric mean (geometric CV %), read-out: AUC0-48): 19.6 ng·h/mL | AUC(0-t) (both sexes, human, plasma, oral, 43.3 mg/kg, Treatment A: single 43.3 mg/kg MT1621, fasted, baseline-adjusted plasma, geometric mean (geometric CV %), read-out: AUC0-t): 13.5 ng·h/mL | Cmax (both sexes, human, plasma, oral, 43.3 mg/kg, Treatment A: single 43.3 mg/kg MT1621, fasted, baseline-adjusted plasma, geometric mean (geometric CV %), read-out: Cmax): 3.53 ng/mL | Tmax (both sexes, human, plasma, oral, 43.3 mg/kg, Treatment A: single 43.3 mg/kg MT1621, fasted, baseline-adjusted plasma, median (minimum, maximum), read-out: Tmax): 1.25 h | half-life (both sexes, human, plasma, oral, 86.7 mg/kg, 86.7 mg/kg dose level, read-out: geometric mean elimination half-life (converted)): 1.44 h | half-life (both sexes, human, plasma, oral, 86.7 mg/kg, Treatment B: single 86.7 mg/kg MT1621, fasted, baseline-adjusted plasma, arithmetic mean ± SD, read-out: t½ (converted)): 8.62 ± 8.68 h | AUC(0-inf) (both sexes, human, plasma, oral, 86.7 mg/kg, Treatment B: single 86.7 mg/kg MT1621, fasted, baseline-adjusted plasma, geometric mean (geometric CV %)): 26.6 ng·h/mL | AUC(0-t) (both sexes, human, plasma, oral, 86.7 mg/kg, Treatment B: single 86.7 mg/kg MT1621, fasted, baseline-adjusted plasma, geometric mean (geometric CV %), read-out: AUC0-4): 10.3 ng·h/mL | AUC(0-t) (both sexes, human, plasma, oral, 86.7 mg/kg, Treatment B: single 86.7 mg/kg MT1621, fasted, baseline-adjusted plasma, geometric mean (geometric CV %), read-out: AUC0-6): 12.8 ng·h/mL | AUC(0-t) (both sexes, human, plasma, oral, 86.7 mg/kg, Treatment B: single 86.7 mg/kg MT1621, fasted, baseline-adjusted plasma, geometric mean (geometric CV %), read-out: AUC0-48): 29.4 ng·h/mL | AUC(0-t) (both sexes, human, plasma, oral, 86.7 mg/kg, Treatment B: single 86.7 mg/kg MT1621, fasted, baseline-adjusted plasma, geometric mean (geometric CV %), read-out: AUC0-t): 23.2 ng·h/mL | Cmax (both sexes, human, plasma, oral, 86.7 mg/kg, Treatment B: single 86.7 mg/kg MT1621, fasted, baseline-adjusted plasma, geometric mean (geometric CV %), read-out: Cmax): 4.67 ng/mL | Tmax (both sexes, human, plasma, oral, 86.7 mg/kg, Treatment B: single 86.7 mg/kg MT1621, fasted, baseline-adjusted plasma, median (minimum, maximum), read-out: Tmax): 1.51 h | half-life (both sexes, human, plasma, oral, 133.3 mg/kg, 133.3 mg/kg dose level, read-out: geometric mean elimination half-life (converted)): 3.01 h | AUC(0-t) (both sexes, human, plasma, oral, 133.3 mg/kg, Treatment C, fasted, baseline-adjusted plasma, ANOVA on ln-transformed data, read-out: AUC0-t Geometric LSM, 133.3 mg/kg MT1621, Fasted (Reference)): 30.8 ng·h/mL | Cmax (both sexes, human, plasma, oral, 133.3 mg/kg, Treatment C, fasted, baseline-adjusted plasma, ANOVA on ln-transformed data, read-out: Cmax Geometric LSM, 133.3 mg/kg MT1621, Fasted (Reference)): 7.17 ng/mL | half-life (both sexes, human, plasma, oral, 133.3 mg/kg, Treatment C: single 133.3 mg/kg MT1621, fasted, baseline-adjusted plasma, arithmetic mean ± SD, read-out: t½ (converted)): 2.67 ± 1.98 h | AUC(0-inf) (both sexes, human, plasma, oral, 133.3 mg/kg, Treatment C: single 133.3 mg/kg MT1621, fasted, baseline-adjusted plasma, geometric mean (geometric CV %)): 22.5 ng·h/mL | AUC(0-t) (both sexes, human, plasma, oral, 133.3 mg/kg, Treatment C: single 133.3 mg/kg MT1621, fasted, baseline-adjusted plasma, geometric mean (geometric CV %), read-out: AUC0-4): 17.1 ng·h/mL | AUC(0-t) (both sexes, human, plasma, oral, 133.3 mg/kg, Treatment C: single 133.3 mg/kg MT1621, fasted, baseline-adjusted plasma, geometric mean (geometric CV %), read-out: AUC0-6): 21.1 ng·h/mL | AUC(0-t) (both sexes, human, plasma, oral, 133.3 mg/kg, Treatment C: single 133.3 mg/kg MT1621, fasted, baseline-adjusted plasma, geometric mean (geometric CV %), read-out: AUC0-48): 53.1 ng·h/mL | AUC(0-t) (both sexes, human, plasma, oral, 133.3 mg/kg, Treatment C: single 133.3 mg/kg MT1621, fasted, baseline-adjusted plasma, geometric mean (geometric CV %), read-out: AUC0-t): 30.8 ng·h/mL | Cmax (both sexes, human, plasma, oral, 133.3 mg/kg, Treatment C: single 133.3 mg/kg MT1621, fasted, baseline-adjusted plasma, geometric mean (geometric CV %), read-out: Cmax): 7.17 ng/mL | Tmax (both sexes, human, plasma, oral, 133.3 mg/kg, Treatment C: single 133.3 mg/kg MT1621, fasted, baseline-adjusted plasma, median (minimum, maximum), read-out: Tmax): 1.26 h | AUC(0-t) (both sexes, human, plasma, oral, 133.3 mg/kg, Treatment D, fed, baseline-adjusted plasma, ANOVA on ln-transformed data, read-out: AUC0-t Geometric LSM, 133.3 mg/kg MT1621, Fed (Test)): 73 ng·h/mL | Cmax (both sexes, human, plasma, oral, 133.3 mg/kg, Treatment D, fed, baseline-adjusted plasma, ANOVA on ln-transformed data, read-out: Cmax Geometric LSM, 133.3 mg/kg MT1621, Fed (Test)): 12.8 ng/mL | half-life (both sexes, human, plasma, oral, 133.3 mg/kg, Treatment D: single 133.3 mg/kg MT1621, fed (high-fat breakfast), baseline-adjusted plasma, arithmetic mean ± SD, read-out: t½ (converted)): 0.986 ± 0.478 h | AUC(0-inf) (both sexes, human, plasma, oral, 133.3 mg/kg, Treatment D: single 133.3 mg/kg MT1621, fed (high-fat breakfast), baseline-adjusted plasma, geometric mean (geometric CV %)): 138 ng·h/mL | AUC(0-t) (both sexes, human, plasma, oral, 133.3 mg/kg, Treatment D: single 133.3 mg/kg MT1621, fed (high-fat breakfast), baseline-adjusted plasma, geometric mean (geometric CV %), read-out: AUC0-4): 31.7 ng·h/mL | AUC(0-t) (both sexes, human, plasma, oral, 133.3 mg/kg, Treatment D: single 133.3 mg/kg MT1621, fed (high-fat breakfast), baseline-adjusted plasma, geometric mean (geometric CV %), read-out: AUC0-6): 48.2 ng·h/mL | AUC(0-t) (both sexes, human, plasma, oral, 133.3 mg/kg, Treatment D: single 133.3 mg/kg MT1621, fed (high-fat breakfast), baseline-adjusted plasma, geometric mean (geometric CV %), read-out: AUC0-48): 55.8 ng·h/mL | AUC(0-t) (both sexes, human, plasma, oral, 133.3 mg/kg, Treatment D: single 133.3 mg/kg MT1621, fed (high-fat breakfast), baseline-adjusted plasma, geometric mean (geometric CV %), read-out: AUC0-t): 73 ng·h/mL | Cmax (both sexes, human, plasma, oral, 133.3 mg/kg, Treatment D: single 133.3 mg/kg MT1621, fed (high-fat breakfast), baseline-adjusted plasma, geometric mean (geometric CV %), read-out: Cmax): 12.8 ng/mL | Tmax (both sexes, human, plasma, oral, 133.3 mg/kg, Treatment D: single 133.3 mg/kg MT1621, fed (high-fat breakfast), baseline-adjusted plasma, median (minimum, maximum), read-out: Tmax): 2.02 h | Tmax (both sexes, human, plasma, oral, under fasted conditions, read-out: median Tmax): 1 to 1.25 h | Tmax (both sexes, human, plasma, oral, under fed conditions, read-out: median Tmax): 1 h | plasma exposure compared to endogenous (baseline) concentrations (following MT1621, all 3 dose levels): consistently higher
SMILES: Nc1ccn([C@H]2C[C@H](O)[C@@H](CO)O2)c(=O)n1 [dC, β-D-2′-deoxycytidine]
